The record followed here is ChEMBL document CHEMBL1201862, “PubChem BioAssay data set” (2004).

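Dose response: 5 concentrations. Exposure: 48 h. Format: 96-well plates. Endpoint: linear interpolation; highest concentration if not reached. GI50 marks 50% less growth.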 Calls of active or inactive are those of the source. No stated cut-off is given here; in the data, active = GI50 up to about 1.1 µM and inactive = higher.

Among the test systems are 786-0; A549; CAKI-1; CCRF-CEM; COLO 205; EKVX; HCT-116; HOP-92; Hs-578T; MDA-N; OVCAR-3; PC-3; SF-295; SK-MEL-28; SNB-19; SNB-75; SR; U-251; A498; BT-549.
What all share (test): inhibition of tumour cell growth, NCI panel, 48 h

`Cc1c2c(C#N)nccc2c(C)c2c1c1ccccc1n2Cc1ccccc1`: the GI50 in the assay on 786-0 is > 100 µM (inactive); in the assay on A549, > 100 µM (inactive); in the assay on CAKI-1 it was > 100 µM (inactive); with CCRF-CEM, > 100 µM (inactive); with COLO 205, > 100 µM (inactive); in the assay on EKVX, 3.79 µM (inactive). The GI50 in the assay on HCT-116 is > 100 µM (inactive); in the assay on HOP-92, 77.8 µM (inactive); in the assay on Hs-578T, 88.5 µM (inactive); in the assay with MDA-N it was > 100 µM (inactive); in the assay on OVCAR-3, > 100 µM (inactive); with PC-3, > 100 µM (inactive). Moreover, the GI50 with SF-295 was > 100 µM (inactive); with SK-MEL-28 it was > 100 µM (inactive); in the assay on SNB-19 it was > 100 µM (inactive); with SNB-75 it was 57.8 µM (inactive); in the assay on SR, 36.1 µM (inactive); in the assay with U-251 it was > 100 µM (inactive).
As to `CC(=O)Nc1ccc(COC(O)CN2CCCCC2)cc1[N+](=O)[O-]` (stereo not given), the GI50 with 786-0, with A498, with A549, with BT-549, in the assay on CAKI-1 and with CCRF-CEM was > 100 µM (inactive) throughout. In addition, the GI50 with COLO 205, with HCT-116, with HOP-92, with MDA-N, in the assay on OVCAR-3 and with PC-3 was > 100 µM (inactive) throughout. Moreover, the GI50 in the assay on SF-295, with SK-MEL-28, in the assay on SNB-19, with SNB-75, in the assay with SR and in the assay with U-251 was > 100 µM (inactive) throughout.
As for `c1ccc(-c2nnn3c2NC2=C(CCCC2)C3c2ccccc2)cc1` (stereo not given), the GI50 in the assay with 786-0 was 16.7 µM (inactive); in the assay on A549 it was 12.9 µM (inactive); in the assay with CAKI-1 it was 18.2 µM (inactive); in the assay on CCRF-CEM, 12.3 µM (inactive); with COLO 205 it was 16.5 µM (inactive); in the assay on HCT-116, 12 µM (inactive). Further, the GI50 with Hs-578T is 24.9 µM (inactive); with MDA-N, 12.9 µM (inactive); in the assay with OVCAR-3 it was 18.4 µM (inactive); in the assay on PC-3, 16.9 µM (inactive); with SF-295, 20.7 µM (inactive); in the assay on SNB-19, 33.8 µM (inactive). Further, the GI50 with SR is 13.5 µM (inactive); with U-251 it was 12.5 µM (inactive).
Take `Cc1cccc(-c2nc(-c3cnccn3)n(Cc3ccccc3)n2)c1`: the GI50 was 52.7 µM (inactive) in the assay with 786-0; > 100 µM (inactive) with A549; > 100 µM (inactive) in the assay on BT-549; > 100 µM (inactive) with CCRF-CEM; > 100 µM (inactive) in the assay on COLO 205; > 100 µM (inactive) in the assay with HCT-116. Moreover, the GI50 in the assay with HOP-92 is 34 µM (inactive); in the assay on MDA-N it was > 100 µM (inactive); with OVCAR-3 it was > 100 µM (inactive); in the assay with PC-3, > 100 µM (inactive); with SF-295 it was 50.8 µM (inactive); with SK-MEL-28 it was 68.5 µM (inactive). Also, the GI50 in the assay with SNB-19 is 95.1 µM (inactive); in the assay with SNB-75, < 0.01 µM (active); in the assay with SR, > 100 µM (inactive); in the assay with U-251, > 100 µM (inactive).
As for `COc1cc(C2c3[nH]c4ccc(F)cc4c3C[C@H]3COC(=O)N23)cc(OC)c1O` (stereo not given in full), the GI50 in the assay on 786-0 was 11.6 µM (inactive); with A498, 6.71 µM (inactive); in the assay with A549, 6.65 µM (inactive); in the assay on BT-549 it was 43.2 µM (inactive); in the assay with CAKI-1 it was 11 µM (inactive); in the assay with CCRF-CEM, 6.89 µM (inactive). Further, the GI50 with COLO 205 was 4.18 µM (inactive); in the assay with EKVX it was 24 µM (inactive); in the assay with HCT-116, 5.78 µM (inactive); in the assay with HOP-92, 15.8 µM (inactive); in the assay on Hs-578T it was 2.85 µM (inactive); in the assay with OVCAR-3 it was 13.4 µM (inactive). Also, the GI50 in the assay on PC-3 was 9.16 µM (inactive); with SF-295, 12.1 µM (inactive); in the assay on SK-MEL-28, 7.96 µM (inactive); with SNB-19 it was 21.3 µM (inactive); in the assay on SNB-75 it was 2.29 µM (inactive); with SR, 0.47 µM (active). In addition, the GI50 in the assay with U-251 was 6.47 µM (inactive).
In the case of `CCCCCCCCCCCCCCCCCc1cccc(OCOCCOC)c1CO`, the GI50 in the assay with 786-0, in the assay with A498, in the assay on A549, with BT-549, in the assay with CAKI-1 and with CCRF-CEM was > 100 µM (inactive) throughout. The GI50 with COLO 205, in the assay on EKVX, in the assay on HCT-116, with HOP-92, in the assay with Hs-578T and in the assay with OVCAR-3 was > 100 µM (inactive) in each case. Further, the GI50 in the assay with PC-3, in the assay on SF-295, in the assay on SK-MEL-28, with SNB-19, in the assay on SNB-75 and in the assay on SR was > 100 µM (inactive) each time. Besides, in the assay with U-251, the GI50 is > 100 µM (inactive).
Take `COC(=O)CCc1ccc(CCC(=O)OC)cc1`: the GI50 in the assay with 786-0, in the assay with A498, with A549, with CAKI-1, with CCRF-CEM and with EKVX was > 100 µM (inactive) in each case. Also, the GI50 in the assay on HCT-116, in the assay on HOP-92, with Hs-578T, with MDA-N, in the assay with OVCAR-3 and in the assay on PC-3 was > 100 µM (inactive) in each case. For the same compound, the GI50 in the assay with SF-295, in the assay with SK-MEL-28, with SNB-19, in the assay with SNB-75, with SR and with U-251 was > 100 µM (inactive) throughout.
As to `CC(C)C(NC(=O)C(Cc1ccccc1)NC(=O)[C@H]1CCC[C@H]1NC(=O)C(Cc1ccc(OC(C)(C)C)cc1)NC(=O)OC(C)(C)C)C(N)=O` (stereo not given in full), the GI50 in the assay with 786-0 was 60.1 µM (inactive); in the assay with A498, 10.7 µM (inactive); in the assay on A549, 20.1 µM (inactive); with CAKI-1 it was 95.9 µM (inactive); in the assay on CCRF-CEM, 16.6 µM (inactive); in the assay on COLO 205, 19.6 µM (inactive). In addition, the GI50 in the assay with EKVX was > 100 µM (inactive); in the assay with HCT-116 it was 17.3 µM (inactive); in the assay with HOP-92, 21.8 µM (inactive); in the assay on Hs-578T, > 10 µM (inactive); in the assay with MDA-N it was 18.3 µM (inactive); in the assay with OVCAR-3 it was 25.1 µM (inactive). The GI50 is 17.8 µM (inactive) in the assay on PC-3; 17.3 µM (inactive) in the assay on SF-295; 18.4 µM (inactive) in the assay on SK-MEL-28; 11.4 µM (inactive) in the assay with SNB-75; 34.9 µM (inactive) in the assay on SR; 14.2 µM (inactive) in the assay with U-251.
